Measurements taken from patent publication US7585895B2, “Therapeutic substituted cyclopentanes” (Allergan, Inc., priority 2005, dated 2009).

What was measured:
[1] = biological target: T1, hEP2/Gqs5 (Homo sapiens, UniProt P43116); assay: FLIPR calcium signal, EP2; assay type: cell-based; conditions: HEK-293(EBNA), value outside parentheses, read-out: Ca2+ Signal-EC50 (nM) EP2
T1 construct: expressed in transfected cells
Procedure: (§1) HEK-293(EBNA) cells, stably expressing one type or subtype of recombinant human prostaglandin receptors (prostaglandin receptors expressed: hDP/Gqs5; hEP1; hEP2/Gqs5; hEP3A/Gqi5; hEP4/Gqs5; hFP; hIP; hTP), were cultured in 100 mm culture dishes in high-glucose DMEM medium containing 10% fetal bovine serum, 2 mM 1-glutamine, 250 μg/ml geneticin (G418) and 200 μg/ml hygromycin B as selection markers, and 100 units/ml penicillin G, 100 μg/ml streptomycin and 0.25 μg/ml amphotericin B.
(§2) Cells were seeded at a density of 5×10^4 cells per well in Biocoat® Poly-D-lysine-coated black-wall, clear-bottom 96-well plates (Becton-Dickinson) and allowed to attach overnight in an incubator at 37° C. Cells were then washed two times with HBSS-HEPES buffer (Hanks Balanced Salt Solution without bicarbonate and phenol red, 20 mM HEPES, pH 7.4) using a Denley Cellwash plate washer (Labsystems). After 45 minutes of dye-loading in the dark, using the calcium-sensitive dye Fluo-4 AM at a final concentration of 2 μM, plates were washed four times with HBSS-HEPES buffer to remove excess dye leaving 100 μl in each well. Plates were re-equilibrated to 37° C. for a few minutes.
(§3) Cells were excited with an Argon laser at 488 nm, and emission was measured through a 510-570 nm bandwidth emission filter (FLIPR™, Molecular Devices, Sunnyvale, Calif.). Drug solution was added in a 50 μl volume to each well to give the desired final concentration. The peak increase in fluorescence intensity was recorded for each well. On each plate, four wells each served as negative (HBSS-HEPES buffer) and positive controls (standard agonists: BW245C (hDP); PGE2 (HEP1; hEP2/Gqs5; hEP3A/Gqi5; hEP4/Gqs5); PGF2α (hFP); carbacyclin (hIP); U-46619 (hTP), depending on receptor). The peak fluorescence change in each drug-containing well was then expressed relative to the controls.
(§4) Compounds were tested in a high-throughput (HTS) or concentration-response (CoRe) format. In the HTS format, forty-four compounds per plate were examined in duplicates at a concentration of 10^−5 M. To generate concentration-response curves, four compounds per plate were tested in duplicates in a concentration range between 10^−5 and 10^−11 M. The duplicate values were averaged. In either, HTS or CoRe format each compound was tested on at least 3 separate plates using cells from different passages to give an n≧3.

[2] = biological target: T2, hEP1 (Homo sapiens, UniProt P34995); assay: FLIPR calcium signal, EP1; assay type: cell-based; conditions: HEK-293(EBNA); for EC50: read-out: Ca2+ Signal-EC50 (nM) EP1
T2 construct: expressed in transfected cells
T2 sequence (P34995 1-402): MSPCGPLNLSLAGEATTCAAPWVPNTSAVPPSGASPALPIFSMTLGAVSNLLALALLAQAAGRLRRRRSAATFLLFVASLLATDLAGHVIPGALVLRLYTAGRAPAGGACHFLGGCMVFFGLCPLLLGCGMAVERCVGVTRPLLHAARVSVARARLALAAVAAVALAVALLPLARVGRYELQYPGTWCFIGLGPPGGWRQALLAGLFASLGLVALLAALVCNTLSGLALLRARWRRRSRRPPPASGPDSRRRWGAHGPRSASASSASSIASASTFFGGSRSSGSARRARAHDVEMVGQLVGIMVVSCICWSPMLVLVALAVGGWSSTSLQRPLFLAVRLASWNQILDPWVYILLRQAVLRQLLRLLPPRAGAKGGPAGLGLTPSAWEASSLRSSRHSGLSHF
Procedure: as §1, §2, §3, §4

[3] = biological target: EP2 (Homo sapiens, UniProt P43116); assay: Competition binding, [3H]PGE2, EP2 (Ki); design: expressed in transfected cells; membranes or whole cells; conditions: HEK 293 cells stably expressing human EP2, [3H]PGE2
Procedure: Competition binding experiments were performed in a medium containing Hank's balanced salt solution, Hepes 20 mM, pH 7.3, membranes (˜60 μg protein) or 2×10^5 cells from HEK 293 cells stably expressing human EP2 receptors, [^3H]PGE2 (10 nM) and various concentrations of test compounds in a total volume of 300 μl. Reaction mixtures were incubated at 23° C. for 60 min, and were filtered over Whatman GF/B filters under vacuum. Filters were washed three times with 5 ml ice-cold buffer containing 50 mM Tris/HCl (pH 7.3). Non-specific binding was estimated in the presence of excess unlabeled PGE2 (10 μM). Binding data fitted to the binding model for a single class of binding sites, using nonlinear regression analysis. IC50 values thus obtained were converted to Ki using the equation of Ki=(IC50/(1+[L]/KD) where [L] represents PGE2 concentration (10 nM) and KD the dissociation constant for [^3H]PGE2 at human EP2 receptors (40 nM).
HEK-293 cells stably expressing the human or feline FP receptor, or EP1, EP2, or EP4 receptors were washed with TME buffer, scraped from the bottom of the flasks, and homogenized for 30 sec using a Brinkman PT 10/35 polytron. TME buffer was added to achieve a final 40 ml volume in the centrifuge tubes (the composition of TME is 100 mM TRIS base, 20 mM MgCl2, […]; 10N HCl is added to achieve a pH of 7.4).
The cell homogenate was centrifuged at 19000 r.p.m. for 20 min at 4° C using a Beckman Ti-60 rotor. The resultant pellet was resuspended in TME buffer to give a final 1 mg/ml protein concentration, as determined by Biorad assay. Radioligand binding competition assays vs. [^3H-]17-phenyl PGF2α. (5 nM) were performed in a 100 μl volume for 60 min. Binding reactions were started by adding plasma membrane fraction. The reaction was terminated by the addition of 4 ml ice-cold TRIS-HCl buffer and rapid filtration through glass fiber GF/B filters using a Brandel cell harvester. The filters were washed 3 times with ice-cold buffer and oven dried for one hour.
[^3H-] PGE2 (specific activity 180 Ci mmol) was used as the radioligand for EP receptors. [^3H] 17-phenyl PGF2α, was employed for FP receptor binding studies. Binding studies employing EP1, EP2, EP4 and FP receptors were performed in duplicate in at least three separate experiments. A 200 μl assay volume was used. Incubations were for 60 min at 25° C. and were terminated by the addition of 4 ml of ice-cold 50 mM TRIS-HCl, followed by rapid filtration through Whatman GF/B filters and three additional 4 ml washes in a cell harvester (Brandel). Competition studies were performed using a final concentration of 5 nM [^3H]-PGE2, or 5 nM [^3H] 17-phenyl PGF2αand non-specific binding determined with 10^−5M of unlabeled PGE2, or 17-phenyl PGF2α, according to receptor subtype studied.

Sequence of EP2 (P43116 whole entry): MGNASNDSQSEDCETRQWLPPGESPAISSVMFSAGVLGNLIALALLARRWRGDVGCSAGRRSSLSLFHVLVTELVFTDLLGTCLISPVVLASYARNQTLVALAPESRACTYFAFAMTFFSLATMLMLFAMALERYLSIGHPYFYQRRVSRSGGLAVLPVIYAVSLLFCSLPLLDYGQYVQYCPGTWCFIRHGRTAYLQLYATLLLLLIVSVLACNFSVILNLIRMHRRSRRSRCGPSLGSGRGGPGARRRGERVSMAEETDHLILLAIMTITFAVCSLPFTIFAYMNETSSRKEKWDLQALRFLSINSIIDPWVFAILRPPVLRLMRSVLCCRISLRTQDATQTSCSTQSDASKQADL
T1 sequence (P43116 whole entry): as above

| EC50 [1] | Ca2+ Signal-EC50 (nM) EP1 [2] | Ki [3] | EC50 [2] | Compound |
| --- | --- | --- | --- | --- |
| 4110 nM | not active | > 10000 nM |  | CCCC1(C(O)c2cccc([C@@H]3[C@@H](Cc4cccc(CCC(=O)O)c4)[C@H](Cl)C[C@H]3O)c2)CCC1 (stereo partly drawn) [Entry 4, 3-[3-((1R,2S,3R,5R)-5-Chloro-3-hydroxy-2-{3-[hydroxy-(1-propyl-cyclobutyl)-methyl]-phenyl}-cyclopentylmethyl)-phenyl]-propionic acid] |
| 735 nM |  | 2160 nM | 4520 nM | O=C(O)CCCCCC[C@@H]1[C@@H](c2ccc(C(O)CCc3ccccc3)cc2)[C@H](O)C[C@H]1Cl (stereo partly drawn) [Entry 24, 7-{(1R,2S,3R,5R)-5-Chloro-3-hydroxy-2-[4-(1-hydroxy-3-phenyl-propyl)-phenyl]-cyclopentyl}-heptanoic acid] |
| 164 nM | not active | 225 nM |  | CCCCC(O)C(C)(C)c1ccc([C@@H]2[C@@H](C/C=C\CCCC(=O)O)[C@H](Cl)C[C@H]2O)cc1 (mixture of isomers) [Entry 32, (Z)-7-{(1R,2S,3R,5R)-5-Chloro-3-hydroxy-2-[4-(2-hydroxy-1,1-dimethyl-hexyl)-phenyl]-cyclopentyl}-hept-5-enoic acid] |
| 4 nM |  | 24 nM | 664 nM | CCCCCC(O)c1ccc([C@@H]2[C@@H](CCCc3ccc(C(=O)O)s3)[C@H](Cl)C[C@H]2O)cc1 (stereo partly drawn) [Entry 2, 5-(3-{(1R,2S,3R,5R)-5-Chloro-3-hydroxy-2-[4-(1-hydroxy-hexyl)-phenyl]-cyclopentyl}-propyl)-thiophene-2-carboxylic acid] |
| 953 nM | not active | 483 nM |  | O=C(O)CCC/C=C\C[C@@H]1[C@@H](c2ccc(C(O)CC3CCCCC3)cc2)[C@H](O)C[C@H]1Cl (mixture of isomers) [Entry 17, (Z)-7-{(1R,2S,3R,5R)-5-Chloro-2-[4-(2-cyclohexyl-1-hydroxy-ethyl)-phenyl]-3-hydroxy-cyclopentyl}-hept-5-enoic acid] |
| 2250 nM | not active | 2290 nM |  | O=C(O)CCCCCC[C@@H]1[C@@H](c2ccc(C(O)CC3CCCCC3)cc2)[C@H](O)C[C@H]1Cl (stereo partly drawn) [Entry 18, 7-{(1R,2S,3R,5R)-5-Chloro-2-[4-(2-cyclohexyl-1-hydroxy-ethyl)-phenyl]-3-hydroxy-cyclopentyl}-heptanoic acid] |
| 58 nM | not active | 278 nM |  | CCCCCCC(O)c1ccc([C@@H]2[C@@H](C/C=C\CCCC(=O)O)[C@H](Cl)C[C@H]2O)cc1 (stereo partly drawn) [Entry 25, (Z)-7-{(1R,2S,3R,5R)-5-Chloro-3-hydroxy-2-[4-(1-hydroxy-heptyl)-phenyl]-cyclopentyl}-hept-5-enoic acid] |
| 142 nM | not active | 564 nM |  | O=C(O)CCC/C=C\C[C@@H]1[C@@H](c2ccc(C(O)c3ccccc3)cc2)[C@H](O)C[C@H]1Cl (stereo partly drawn) [Entry 28, (Z)-7-{(1R,2S,3R,5R)-5-Chloro-3-hydroxy-2-[4-(hydroxy-phenyl-methyl)-phenyl]-cyclopentyl}-hept-5-enoic acid] |
| 5390 nM | not active | 3850 nM |  | CC(C)(C)CCCC(O)c1ccc([C@@H]2[C@@H](CCCCCCC(=O)O)[C@H](Cl)C[C@H]2O)cc1 (mixture of isomers) [Entry 20, 7-{(1R,2S,3R,5R)-5-Chloro-3-hydroxy-2-[4-(1-hydroxy-5,5-dimethyl-hexyl)-phenyl]-cyclopentyl}-heptanoic acid] |
| 158 nM | not active | 2780 nM |  | CCCCCC(O)c1ccc([C@@H]2[C@@H](Cc3cccc(CCC(=O)O)c3)[C@H](Cl)C[C@H]2O)cc1 (stereo partly drawn) [Entry 3, 3-(3-{(1R,2S,3R,5R)-5-Chloro-3-hydroxy-2-[4-(1-hydroxy-hexyl)-phenyl]-cyclopentylmethyl}-phenyl)-propionic acid] |
| 51 nM | not active | 148 nM |  | O=C(O)CCCCCC[C@@H]1[C@@H](c2ccc(C(O)Cc3ccccc3)cc2)[C@H](O)C[C@H]1Cl (stereo partly drawn) [Entry 22, 7-{(1 R,2S,3R,5R)-5-Chloro-3-hydroxy-2-[4-(1-hydroxy-2-phenyl-ethyl)-phenyl]-cyclopentyl}-heptanoic acid] |
| 619 nM | not active | 6170 nM |  | CCCCCC(O)c1ccc([C@@H]2[C@@H](CCCc3ncc(C(=O)O)s3)[C@H](Cl)C[C@H]2O)cc1 (stereo partly drawn) [Entry 5, 2-(3-{(1R,2S,3R,5R)-5-Chloro-3-hydroxy-2-[4-(1-hydroxy-hexyl)-phenyl]-cyclopentyl}-propyl)-thiazole-5-carboxylic acid] |
| 7 nM | not active | 209 nM |  | CCCCCC(O)c1ccc([C@@H]2[C@@H](C/C=C\CCCC(=O)O)[C@H](Cl)C[C@H]2O)cc1 (mixture of isomers) [Entry 11, (Z)-7-{(1R,2S,3R,5R)-5-Chloro-3-hydroxy-2-[4-(1-hydroxy-hexyl)-phenyl]-cyclopentyl}-hept-5-enoic acid] |
| 68 nM | not active | 1260 nM |  | CCCCC(O)c1cccc([C@@H]2[C@@H](C/C=C\CCCC(=O)O)[C@H](Cl)C[C@H]2O)c1 (stereo partly drawn) [Entry 30, (Z)-7-{(1R,2S,3R,5R)-5-Chloro-3-hydroxy-2-[3-(1-hydroxy-pentyl)-phenyl]-cyclopentyl}-hept-5-enoic acid] |
